According to patent publication US20250376441A1, “NOVEL COMPOUND AND PHARMACEUTICAL COMPOSITION COMPRISING SAME AS ACTIVE INGREDIENT” (Industry-Academic Cooperation Foundation, Yonsei University, priority 2017, published 2025):
Values joined by “and” are separate entries in the source; they are usually repeats but may differ in a detail not shown here. Equal entries are not always repeated. Where two headings read alike, the source gives them in different places.

Legend:
NIH 3T3 = test: Cytotoxicity test (Cyto X cell viability assay kit), NIH 3T3; assay type: cell-based; conditions: Mus musculus, NIH3T3
Description: (§1) In order to identify whether the Preparation Example 6 according to the present invention is toxic to cells, a cytotoxicity test was conducted at the Korea Research Institute of Chemical Technology using the Cyto X™ cell viability assay kit ([…]).

[1] = target: AMP-activated protein kinase (AMPK); test: AMPK kinase assay (luminescence, purified enzyme, ATP, substrate peptide); assay type: biochemical; conditions: AMPK activation
Description: In order to identify an effect of the Preparation Example 6 having the highest docking score in Experimental Example 1 on activity of the AMP-activated protein kinase (AMPK), a kinase assay was performed. The kinase assay was performed as follows. […] Then, purified AMP-activated protein kinase and ATP were allowed to react on a substrate peptide for the AMP-activated protein kinase, and degrees of luminescence thereof were shown as EC50 in Table 3 and FIG. 3.

[2] = tested on: acetylcholine in brain tissues; test: Acetylcholine content in brain tissue; assay type: in vivo, ICR mice
Description: (§2) Subsequently, the syringe was allowed to stand for 5 minutes and then removed.
Measurement of acetylcholine in brain tissues was performed based on response of o-acyl derivatives with alkaline hydroxylamine. Specifically, 50 μl of brain tissue was taken and 50 μl of 1% hydroxylamine (Sigma, USA) was added and mixed. […] Finally, 500 μl of FeCl3 (10% in 0.1 N HCl) was added to measure an acetylcholine level (umole/mg protein), and then the absorbance was measured at 530 nm.

[3] = Lipophilicity (pKa, LogP); assay type: physicochemical; conditions: ACD/Labs T3 (pH-metrior)
Description: (§3) For a preliminary examination on clinical application of the Preparation Example 6, evaluation on lipophilicity and solubility was performed.

[4] = tested on: amyloid-beta peptide1-42 degenerative neurological disease-induced mice; test: Passive avoidance response test; assay type: in vivo, ICR mice; conditions: p<0.05 vs beta-amyloid group
Description: (§4) In order to induce a degenerative neurological disease, the experimental animals of Preparatory Example 1 were anesthetized by inhalation with 2.5% isoflurane. Then, 1 μg of amyloid-beta peptide1-42, a degenerative neurological disease-inducing substance, was administered to the animals at both hippocampal positions (AP: −2.3, L: ±2.0, H: −1.5) using a stereotaxic apparatus. […] For the administration, 1 μl was injected, at a flow rate of 0.2 μl/min, with a […] gas-tight glass syringe (Hamilton, Reno, NV, USA) using a perfusion pump (Pump 22, Harvard Apparatus, South Natick, MA, USA). Subsequently, the syringe was allowed to stand for 5 minutes and then removed.
(§5) Then, a degenerative neurological disease was induced as in Preparation Example 2.
Under a situation where a chamber with a bright light and a dark chamber were connected to each other via a small passage, 4 hours before the experiment, the experimental animals were placed in the chamber with a bright light. The experimental animals instinctively enter the dark chamber. However, after 4 hours of fear learning carried out by using an electric shock to give aversive stimulus, in a case where the experimental animals are placed in the chamber with a bright light, the time until the experimental animals enter the dark chamber was measured and quantified. The results are illustrated in FIG. 10.

[5] = assay type: in vitro ADME; conditions: PAMPA
Source text: The results are illustrated in FIG. 17.

[6] = tested on: amyloid-beta peptide1-42 degenerative neurological disease-induced mice; test: Probe test (Morris water maze, platform removed); assay type: in vivo, ICR mice; conditions: 90 seconds without platform
Description: as §4, §5
A circular pool (diameter: 120 cm, height: 75 cm) was filled with water to a depth of 25±1 cm as in FIG. 4, and a 24 cm platform was prepared by hiding it 1 cm below the water surface. Space cues were installed on the four sides of the wall so that the aminals can identify locations, and skimmed milk powder was dissolved into water so that the animals cannot identify the platform with naked eyes. One day before the experiment, all the experimental animals were allowed to swim freely for 1 minute in a water bath having no platform, so that the animals can adapt to the swimming situation. After that, a test group was allowed to start, in any order, from two of the three quadrants except the quadrant where the platform was placed, and allowed to find the platform for 60 seconds. In a case where an animal finds the platform, the animal was allowed to stay thereon for 20 seconds. […] As soon as end of the position learning time, which is the 20-second staying time, the animal was allowed to start again from any quadrant, and the time and distance to reach the platform were measured. The procedure was performed four times a day, and all procedures were taken with a camera and analyzed with a video tracking system (Panlab, USA). Probe trials were made on the fifth day after the four-day experiment in toal was completed. The test group was allowed to swim freely for 90 seconds without the platform, thereby performing evaluation on whether the test group holds a memory of the platform location. The results are illustrated in FIGS. 5 to 7.
The results are illustrated in FIGS. 8 and 9.

L929 = test: Cytotoxicity test (Cyto X cell viability assay kit), L929; assay type: cell-based; conditions: Mus musculus
Description: as §1

[7] = Solubility by nephelometry; assay type: physicochemical; conditions: 5% DMSO in water, aqueous with cosolvent or surfactant or cyclodextrin, kinetic from dmso stock, DMSO 5%/water solvent
Description: as §3

Half-life test = test: Half-life test
Source text: In order to identify whether the Preparation Example 6 according to the present invention can be orally administered, a half-life of the compound was checked. […] The results are illustrated in FIG. 18.

acetylcholine hydrolase = assay type: in vivo; conditions: brain tissue
Description: as §2
Then, acetylcholine hydrolase activity was measured by the following method. To a microplate were continuously added 300 μl of 0.1 M Tris buffer, pH 8.0 (Trizma HCl±Trizmabase), 20 μl of 0.01 M dithionitrobenzoic acid (DTNB; Sigma, USA), 10 μl of brain tissue homogenate (enzyme suspension). Immediately before absorbance measurement, 10 μl of 0.1 M acetylthiocholine chloride (Sigma, USA) as a substrate was added thereto. An absorbance meter was used to observe absorbance changes at 405 nm for 5 minutes, so that acetylcholine hydrolase activity (unit/min/mg protein) was measured.

VERO = test: Cytotoxicity test (Cyto X cell viability assay kit), VERO; assay type: cell-based; conditions: Chlorocebus sabaeus
Description: as §1

Question: For `COc1ccc(OC)c(/C=C/C(=O)c2ccc(NS(=O)(=O)c3ccc(Cl)cc3)cc2)c1` [Preparation Example 6, (E)-4-Chloro-N-(4-(3-(2,5-dimethoxyphenyl)acryloyl)phenyl)benzenesulfonamide], which IC50 (NIH 3T3) is on record?
Answer: The IC50 was greater than 100 µM.

Question: What about the EC50 [1] of the same compound?
Answer: The EC50 was 0.637 µM.

Question: And the acetylcholine content ([2]; 1 mg, p<0.05)?
Answer: The acetylcholine content was 22.31±1.80 μmole/mg protein.

Question: What about the acetylcholine content ([2]; 10 mg, p<0.01) of the same compound?
Answer: The acetylcholine content was 23.08±1.54 μmole/mg protein.

Question: What about the acetylcholine content ([2]; 100 mg, p<0.01) of the same compound?
Answer: The acetylcholine content was 22.79±1.45 μmole/mg protein.

Question: What about the logP [3] of the same compound?
Answer: Its logP is 4.75.

Question: What about the “staying time in the chamber with a bright light” value ([4]; 10 mg) of the same compound?
Answer: The value was 156.87 ± 50.95 s.

Question: What about the “staying time in the chamber with a bright light” value ([4]; 100 mg) of the same compound?
Answer: The value was 153.48 ± 34.71 s.

Question: And the degree of permeability [5]?
Answer: The degree of permeability was “medium value”.

Question: What about the “membrane permeability measured value” [5] of the same compound?
Answer: The value was −4.4±0.152.

Question: What about the “swimming time in the target quadrant” value ([6]; 1 mg, p<0.05) of the same compound?
Answer: The value was 31.08 ± 6.33 s.

Question: And the “swimming time in the target quadrant” value ([6]; 10 mg, p<0.01)?
Answer: The value was 36.73 ± 7.78 s.

Question: What about the “swimming time in the target quadrant” value ([6]; 100 mg, p<0.01) of the same compound?
Answer: The value was 36.51 ± 6.55 s.

Question: What about the IC50 (L929) of the same compound?
Answer: Its IC50 is greater than 100 µM.

Question: What about the solubility [7] of the same compound?
Answer: Its solubility is 206 µM and 94.4 µg/mL.

Question: And the half-life (Half-life test)?
Answer: Its half-life is no less than 3 h.

Question: And the acetylcholine hydrolase activity (acetylcholine hydrolase; 10 mg)?
Answer: Its acetylcholine hydrolase activity is 0.25±0.07 U/mg protein.

Question: And the acetylcholine hydrolase activity (acetylcholine hydrolase; 100 mg)?
Answer: Its acetylcholine hydrolase activity is 0.24±0.05 U/mg protein.

Question: And the IC50 (VERO)?
Answer: Its IC50 is 83.6 µM.
